Assay results from article PMC8793064, “Bioassay Guided Fractionation of Senna singueana and Its Potential for Development of Poultry Phytogenic Feed Additives” (Frontiers in Veterinary Science, 2022).
Values after ≈ are worked out from the molar mass of the structure shown. Marks after values point to notes of the source that are not given here.

Key:
[1] = test system: Escherichia coli (ATCC 25922); assay: MIC by serial two-fold microdilution; type: cell-based; conditions: ATCC25922, 24 h
Experimental: (§1) The four bacterial cultures were prepared by inoculating a single colony from an agar plate into 10 ml of sterilised Mueller-Hinton (MH) broth (Merck, South Africa) and incubating at 37°C in an MRC orbital shaker (150 rpm) incubator (United Scientific, South Africa) for 18 to 20 h prior to the experiment. Following incubation, each bacterial strain was diluted in MH broth (Merck, South Africa) and the absorbance was measured at a wavelength of 560 nm using a spectrophotometer (Epoch microplate reader: BioTek, United States).
(§2) The assay was performed in microtitre plates (Lasec, South Africa) by adding 100 μl of sterile water to all wells. In the first row, 100 μl of extract, fraction or compound were added in triplicate and serially diluted two-fold to the last well, from which 100 μl were then discarded. Gentamicin (Virbac, South Africa) was used as a positive control and a sterility control containing only water was included. This was followed by addition of 100 μl of the bacterial suspension to each well (except for the sterility control). The plates were sealed with parafilm and incubated at 37°C (IncoTherm, Labotec). After 24 h, 40 μl of a 0.2 mg/ml solution of INT was added to each well and the plate further incubated for at least half an hour to ensure adequate colour development. INT is a dehydrogenase activity detecting reagent, which is converted into an intensely coloured red-purple formazan by metabolically active micro-organisms. Inhibition of growth was indicated by a clear solution or a noticeable decrease in colour reaction. This value was taken as the MIC of the sample. The experiments were conducted twice.

[2] = test system: Escherichia coli (clinical strain); assay: MIC by serial two-fold microdilution; type: cell-based; conditions: 24 h
Experimental: as §1, §2

[3] = test system: Staphylococcus aureus (ATCC 29213); assay: MIC by serial two-fold microdilution; type: cell-based; conditions: ATCC29213, 24 h
Experimental: as §1, §2

[4] = test system: Salmonella Enteritidis (ATCC 13076); assay: MIC by serial two-fold microdilution; type: cell-based, Salmonella enterica subsp. enterica var. Enteritidis; conditions: Salmonella enterica, 24 h
Experimental: as §1
as §2, with “INT is a dehydrogenase activity detecting reagent, which is converted into an intensely coloured red-purple formazan by metabolically active micro-organisms. Inhibition of growth was indicated by a clear solution or a noticeable decrease in colour reaction. This value was taken as the MIC of the sample. The experiments were conducted twice.” left out

DPPH free radical assay = conditions: for DPPH IC50: 30 min, 516 nm; for DPPH IC50 obtained after log transformation of data: value in brackets, data not normally distributed
Experimental: The antioxidant activities of the samples were measured in terms of radical scavenging ability using the stable radical (DPPH) method of Brand-Williams et al. ([12]) with some modifications. Methanol solutions (40 μl) of the samples and positive controls (Trolox and ascorbic acid) at various concentrations (0.1–100 μg/ml) were prepared by serial dilution in a 96 well-microtitre plate. One hundred and sixty (160) μl of DPPH in methanol adjusted to an absorbance between 0.9 and 1.0 was added and the plates were incubated in the dark at room temperature (25°C) for 30 min. Absorbance was measured against a blank with a microtitre plate reader (Epoch, BioTek, United States) at 516 nm. The DPPH scavenging effect was determined using the following formula:
(1) DPPH Scavenging Effect(%)=[(A1-A2/A1)] × 100
Where A1 is the absorbance of the control reaction and A2 is the absorbance in the presence of the sample. Trolox and ascorbic acid were used as controls. The experiments were conducted twice.

[5] = ABTS free-radical-scavenging assay; conditions: for ABTS IC50: 6 min, 734 nm; for ABTS IC50 obtained after log transformation of data: value in brackets, data not normally distributed
Experimental: The free radical-scavenging activity as a measure of hydrogen donating capacity was determined by using the ABTS cation decolourization method of Re et al. ([16]) with some modifications. ABTS radical solution (7 μM) was prepared by dissolving 1.32 × 10^4 μg of ABTS in 10 ml of 50% methanolic solution and 7.68 × 10^4 μg of potassium persulphate ([…]) in 10 ml of distilled water. The two solutions were mixed together and made up to 200 ml with 50% methanolic solution, and kept in the dark at room temperature, 25°C for 12 h. Prior to running the assay, the ABTS radical solution was diluted with 50% methanolic solution to an absorbance between 0.7 and 0.8 at 734 nm. The samples were serially diluted (40 μl) (0.1–100 μg/ml) in 96 well-microtitre plates and 160 μl of ABTS radical solution was added to each well. The absorbance readings were taken after exactly 6 min of reaction and blanks were prepared using the respective samples without ABTS radical. The scavenging effect was calculated using the following formula:
(2) ABTS Scavenging Effect(%)=[(A1-A2/A1)] × 100
The IC50 values were calculated from a graph plotted as inhibition percentage against the concentration. A Trolox standard curve was drawn by plotting percentage inhibition of the ABTS+ radical against the concentration of Trolox. Data from the test samples were analysed in a similar manner.

in vitro = conditions: monkey
Experimental: (§4) The cytotoxic effect of the fractions and the isolated compounds was determined using an in vitro assay with Vero monkey kidney cells ([15]). The growth medium used was Minimal Essential Medium (MEM, Whitehead Scientific) supplemented with 0.1% gentamicin (Virbac) and 5% foetal calf serum (Highveld Biological). The cells were seeded at a density of 10 000 cells/per well in 96-well-microtitre plates. The plates were incubated at 37°C in a 5% CO2 incubator in a humidified environment for 24 h to allow cell attachment.
(§5) After incubation, the medium was aspirated and replaced with fresh MEM. The fractions/compounds (100 μl) of varying concentrations were added to the wells containing cells. The anticancer compound doxorubicin (Pfizer Laboratories) was used as a positive control. A suitable blank control with equivalent concentrations of fresh medium was also included and the plates were further incubated for 48 h in a CO2 incubator. Subsequently, the medium in each well was aspirated from the cells, which were washed with phosphate-buffered saline (PBS) and fresh medium was then added to each well. A 30 μl aliquot of MTT (5 mg/ml in PBS) was added to each well and the plates were incubated at 37°C for 4 h. The medium was then aspirated from wells and 50 μl DMSO was added to each well to solubilise the formed formazan crystals. The absorbance was measured on a BioTek Synergy microtitre plate reader at 570 nm. Cell growth inhibition for each extract was expressed in terms of LC50 values. […] The cytotoxicity assay was repeated thrice.

15-LOX = biological target: T1, 15-LOX (Glycine max, UniProt P08170); assay: biochemical
T1 construct: purchased Sigma Aldrich, Germany
T1 sequence (P08170 1-839): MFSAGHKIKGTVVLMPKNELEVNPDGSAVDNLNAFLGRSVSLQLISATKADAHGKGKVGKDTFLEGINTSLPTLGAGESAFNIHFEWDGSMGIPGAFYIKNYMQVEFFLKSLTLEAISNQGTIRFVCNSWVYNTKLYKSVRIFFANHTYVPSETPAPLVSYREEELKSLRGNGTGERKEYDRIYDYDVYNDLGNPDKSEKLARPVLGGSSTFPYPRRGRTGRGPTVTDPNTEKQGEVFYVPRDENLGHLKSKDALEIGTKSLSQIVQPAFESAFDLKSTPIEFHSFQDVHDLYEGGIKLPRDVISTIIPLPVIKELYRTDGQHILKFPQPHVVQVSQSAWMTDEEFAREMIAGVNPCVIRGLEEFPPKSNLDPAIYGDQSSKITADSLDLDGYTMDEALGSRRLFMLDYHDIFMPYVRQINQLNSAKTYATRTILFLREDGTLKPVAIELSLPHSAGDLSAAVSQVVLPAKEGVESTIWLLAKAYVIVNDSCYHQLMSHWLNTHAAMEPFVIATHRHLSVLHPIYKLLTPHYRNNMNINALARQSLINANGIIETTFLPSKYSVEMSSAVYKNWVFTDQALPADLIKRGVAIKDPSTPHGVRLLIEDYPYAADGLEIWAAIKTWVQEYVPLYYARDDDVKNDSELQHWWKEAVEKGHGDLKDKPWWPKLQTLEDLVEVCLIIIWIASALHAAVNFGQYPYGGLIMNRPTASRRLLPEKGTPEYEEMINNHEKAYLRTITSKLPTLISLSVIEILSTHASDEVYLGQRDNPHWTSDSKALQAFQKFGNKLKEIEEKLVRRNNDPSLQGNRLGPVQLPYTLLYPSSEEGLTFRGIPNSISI
Experimental: Lipoxygenase (LOX) activity of the samples was determined spectrophotometrically according to published methods ([17], [18]). LOX inhibition was determined spectrophotometrically based on the formation of the complex Fe3+/xylenol orange as described by Pinto et al. ([19]). Briefly, 20 μl of Tris-HCl buffer (pH 7.4) was added to all wells of the 96-well-microplates. This was followed by the addition of 20 μl of the fractions (1 or 0.5 mg/ml) in the first row of the plate which was serially diluted. […] After the serial dilution, 40 μl of the lipoxygenase enzyme (Sigma Aldrich, Germany) was added to each well and the plates were incubated at room temperature 25°C for 5 min. After incubation, 40 μl of linoleic acid (final concentration, 140 μM) prepared in Tris-HCl buffer (50 mM, pH 7.4) was added to the well (except for the blanks). The plates were incubated at 25°C for 20 min in the dark. After incubation, 100 μl of freshly prepared ferrous oxidation–xylenol orange (FOX) reagent [sulfuric acid (30 mM), xylenol orange (100 μM), iron (II) sulphate (100 μM) in methanol/water (9:1)] was added to all wells. The plates were further incubated at 25°C for 30 min in the dark, 40 μl of linoleic acid was then added to the blanks. The absorbance was measured at 560 nm. […] The experiments were conducted twice.

[6] = test system: Escherichia coli (ATCC 25922); assay: Antibacterial TLC bioautography; type: cell-based; conditions: E. coli
Description: (§3) The compounds in the crude extract and fractions, as well as the purified compounds were developed as described above but the bioautograms were sprayed with respective cultures. After development, the TLC plates were dried overnight in a stream of cold air and sprayed with an actively growing concentrated suspension of strains of either Staphylococcus aureus (ATCC 29213), Salmonella enterica subsp. enterica var. Enteritidis (S. Enteritidis ATCC 13076) or Escherichia coli (ATCC 25922). The plates were dried and incubated overnight at 37°C in closed, sterile, humidified plastic containers to allow growth of the bacteria on the plates. After incubation, the plates were sprayed with a sterile 2 mg/ml solution of p-iodonitrotetrazolium (INT, Sigma-Aldrich) salt and incubated for a further 1 h. The presence of clear zones on the chromatogram after the incubation period indicated inhibition of growth as the INT is metabolised to a coloured formazan product by the actively growing cells ([11]). The retention factors of the bands of inhibition were calculated.

[7] = test system: Staphylococcus aureus (ATCC 29213); assay: Antibacterial TLC bioautography; type: cell-based; conditions: S. aureus
Description: as §3

[8] = test system: S. Enteritidis ATCC 13076; assay: Antibacterial TLC bioautography; type: cell-based, Salmonella enterica subsp. enterica var. Enteritidis
Description: as §3

[9] = Qualitative antioxidant activity, TLC sprayed with DPPH; conditions: TLC sprayed with DPPH 0.2% w/v
Experimental: TLC plates (10 × 20 cm, aluminium-backed, Merck, silica gel 60 F254) were loaded with 10 μl of the crude extract, fraction or compound (re-dissolved to 10 mg/ml) and dried before being developed in two mobile phase systems (CEF and EMW). […] A change of colour from the DPPH purple background to yellow indicated the presence of antioxidant compounds ([13]).

[10] = test system: three ATCC strains and E. coli clinical strain; assay: MIC by microdilution, stated over the whole panel of strains; type: cell-based
Experimental: as §1
as §2, with “INT is a dehydrogenase activity detecting reagent, which is converted into an intensely coloured red-purple formazan by metabolically active micro-organisms. Inhibition of growth was indicated by a clear solution or a noticeable decrease in colour reaction. This value was taken as the MIC of the sample. The experiments were conducted twice.” left out

Experimental for Vero monkey kidney cells: as §4, §5

CNC(C)C1CCC(N)C(OC2C(N)CC(N)C(OC3OCC(C)(O)C(NC)C3O)C2O)O1 (stereo not drawn) [Gentamicin, reference compound] showed an MIC [1] of 20 µg/mL (≈ 41.9 µM), an MIC [2] of 20 µg/mL (≈ 41.9 µM) and an MIC [3] of 20 µg/mL (≈ 41.9 µM). The MIC [4] was 20 µg/mL (≈ 41.9 µM).

For Cc1c(C)c2c(c(C)c1O)CCC(C)(C(=O)O)O2 (stereo not drawn) [Trolox], the “DPPH IC50” value (DPPH free radical assay) was 3.19 ± 0.32 µg/mL, the “DPPH IC50 obtained after log transformation of data” value (DPPH free radical assay) was 4.02 μg/ml and the “ABTS IC50” value [5] was 2.21 ± 0.30 µg/mL. For the same molecule, the “ABTS IC50 obtained after log transformation of data” value [5] was 2.76 μg/ml.

COc1cccc2c1C(=O)c1c(O)c3c(c(O)c1C2=O)C[C@@](O)(C(=O)CO)C[C@@H]3O[C@H]1C[C@H](N)[C@H](O)[C@H](C)O1 [Doxorubicin, doxorubicin, reference compound] showed a CC50 at 48 h (in vitro) of 9 ± 1.28 µg/mL (≈ 16.6 µM).

In the case of O=C1O[C@H]([C@@H](O)CO)C(O)=C1O [Ascorbic acid, ascorbic acid], the “DPPH IC50” value (DPPH free radical assay) is reported as 1.97 ± 0.21 µg/mL, the “DPPH IC50 obtained after log transformation of data” value (DPPH free radical assay) is reported as 2.45 μg/ml and the “ABTS IC50” value [5] is reported as 1.90 ± 0.07 µg/mL. The “ABTS IC50 obtained after log transformation of data” value [5] was 2.45 μg/ml.

O=c1cc(-c2ccc(O)c(O)c2)oc2cc(O)cc(O)c12 [Compound 1, luteolin] gave an MIC [1] of 156 µg/mL (≈ 545 µM), an MIC [2] of 156 µg/mL (≈ 545 µM) and an MIC [3] of 625 µg/mL (≈ 2180 µM). For the same molecule, the “DPPH IC50” value (DPPH free radical assay) was 5.92 ± 0.64^a μg/ml, the “ABTS IC50” value [5] was 8.17 ± 0.80^a μg/ml and the IC50 (15-LOX) was 25.8 µM. The “antibacterial activity in bioautography” value [6] was “active”, the “antibacterial activity in bioautography” value [7] was “active” and the “antibacterial activity in bioautography” value [8] was “active”. For the same molecule, the “antioxidant activity in bioautography (DPPH bleaching)” value [9] was “antioxidant activity”, the MIC ([10]; Escherichia coli, three ATCC strains and E. coli clinical strain, read-out: MIC values over the tested strains) was greater than 100 µg/mL and the antibacterial activity class ([10]; all the tested bacterial strains) was “weak (values >625 μg/ml indicate weak activity)”. For the same molecule, the cytotoxicity class (Vero monkey kidney cells) was “moderate” and the CC50 at 48 h (in vitro) was 92.9 ± 1.7 µg/mL (≈ 325 µM).
